We go through 11 compounds from ChEMBL document CHEMBL1201862, “PubChem BioAssay data set” (2004).

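Grown in 96-well plates, cells were treated for 48 hours with each compound at five concentrations. Insufficient inhibition: endpoint recorded as highest concentration tested. Abbreviation: GI50, concentration required for 50% inhibition of growth.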 The source made the active and inactive calls. Rule as the data show it: active = GI50 up to about 1.1 µM and inactive = higher.

Among the test systems are MCF7; DU-145; SF-295; COLO 205; KM12; HOP-62; NCI-H460; MDA-MB-231; CCRF-CEM; SF-268; MDA-MB-435; UO-31; SK-OV-3; U-251; SNB-19; T47D; EKVX; PC-3; SK-MEL-2; HOP-92.
Assay in all cases: NCI-60 cell line screen, 48 h

On to `O=C1N=C(c2ccccc2)OC1C(=O)c1ccccc1` (stereo not given), for which the GI50 in the assay on MCF7, with DU-145, in the assay on SF-295, with COLO 205, in the assay on KM12 and in the assay on HOP-62 was > 100 µM (inactive) throughout. For the same compound, the GI50 with NCI-H460, with MDA-MB-231, in the assay with CCRF-CEM, with SF-268, with MDA-MB-435 and in the assay on UO-31 was > 100 µM (inactive) throughout. For the same compound, the GI50 in the assay with SK-OV-3, in the assay with U-251, with SNB-19, with T47D, with EKVX and with PC-3 was > 100 µM (inactive) in each case. In the assay on SK-MEL-2, the GI50 was > 100 µM (inactive).
`NCCC1CN(C(=O)OCc2ccccc2)c2ccccc21` (stereo not given): the GI50 with MCF7 is 1.01 µM (active); with DU-145 it was 17.3 µM (inactive); in the assay on SF-295, 18.3 µM (inactive); with COLO 205 it was 16.3 µM (inactive); in the assay on KM12, 17.8 µM (inactive); with HOP-62, 23.1 µM (inactive). Besides, the GI50 with NCI-H460 was 17.7 µM (inactive); in the assay with MDA-MB-231 it was 19.1 µM (inactive); with SF-268 it was 17.1 µM (inactive); in the assay on HOP-92, 5.45 µM (inactive); in the assay on MDA-MB-435, 14.8 µM (inactive); in the assay with UO-31 it was 12.7 µM (inactive). For the same compound, the GI50 in the assay with SK-OV-3 is > 42.4 µM (inactive); in the assay with U-251 it was 14.3 µM (inactive); in the assay on SNB-19 it was 19.5 µM (inactive); in the assay with T47D, 3.13 µM (inactive); with EKVX, 20.2 µM (inactive); with PC-3 it was 3.86 µM (inactive). Besides, in the assay on SK-MEL-2, the GI50 is 18 µM (inactive).
For `O=C(N/N=C/c1ccc(O)cc1)NNCCO`, the GI50 in the assay on MCF7, in the assay on DU-145, with SF-295, in the assay on COLO 205, in the assay on KM12 and in the assay with HOP-62 was > 100 µM (inactive) each time. Moreover, the GI50 in the assay on NCI-H460, in the assay on MDA-MB-231, in the assay with CCRF-CEM, in the assay on MDA-MB-435, with UO-31 and with SK-OV-3 was > 100 µM (inactive) each time. Besides, the GI50 in the assay on U-251, in the assay with SNB-19, in the assay with T47D, with PC-3 and with SK-MEL-2 was > 100 µM (inactive) each time.
Regarding `O=C1O/C(=C\C=C\CO)C=C1/C=C/CO` [LISSOCLINOLIDE], the GI50 was 36.3 µM (inactive) in the assay with MCF7; 21 µM (inactive) with DU-145; 39 µM (inactive) in the assay on SF-295; 2.23 µM (inactive) in the assay with COLO 205; 36.9 µM (inactive) with KM12; 32.1 µM (inactive) in the assay with NCI-H460. Besides, the GI50 with MDA-MB-231 was 21.3 µM (inactive); in the assay on CCRF-CEM, 22.9 µM (inactive); in the assay on SF-268 it was 24.5 µM (inactive); with MDA-MB-435, 35.7 µM (inactive); in the assay on UO-31, 16.5 µM (inactive); with SK-OV-3, 61.2 µM (inactive). For the same compound, the GI50 is 40.8 µM (inactive) in the assay with U-251; 23.5 µM (inactive) with SNB-19; 20.7 µM (inactive) with T47D; 15.3 µM (inactive) in the assay with EKVX; 14.3 µM (inactive) in the assay with PC-3; 19.3 µM (inactive) in the assay with SK-MEL-2.
On to `CN1CCC/C1=N\C#N`, for which the GI50 in the assay on MCF7, with DU-145, in the assay on SF-295, in the assay on COLO 205, in the assay on KM12 and in the assay with HOP-62 was > 100 µM (inactive) in each case. Further, the GI50 in the assay with NCI-H460, in the assay with MDA-MB-231, in the assay on CCRF-CEM, in the assay on SF-268, in the assay on MDA-MB-435 and with UO-31 was > 100 µM (inactive) each time. Besides, the GI50 with SK-OV-3, in the assay on U-251, with SNB-19, with T47D, in the assay on EKVX and in the assay on PC-3 was > 100 µM (inactive) each time. For the same compound, in the assay on SK-MEL-2, the GI50 is > 100 µM (inactive).
As to `O=C(O)/C=C/C(=O)N1Cc2cc3ccccc3nc2C1`, the GI50 with MCF7, in the assay with DU-145, in the assay on SF-295, in the assay on COLO 205, in the assay with KM12 and in the assay on HOP-62 was > 100 µM (inactive) each time. Further, the GI50 with NCI-H460, in the assay with MDA-MB-231, in the assay with SF-268, in the assay on HOP-92, in the assay with MDA-MB-435 and with UO-31 was > 100 µM (inactive) throughout. In addition, the GI50 with SK-OV-3, in the assay with U-251, in the assay on SNB-19, in the assay with T47D, in the assay on EKVX and in the assay on PC-3 was > 100 µM (inactive) throughout. In the assay on SK-MEL-2, the GI50 was > 100 µM (inactive).
For the compound `S=C(N1CCN(c2ccccc2)CC1)N1CCN(c2ccccc2)CC1`, the GI50 was > 100 µM (inactive) in the assay with MCF7; > 100 µM (inactive) in the assay on DU-145; 52.1 µM (inactive) with SF-295; > 100 µM (inactive) with COLO 205; > 100 µM (inactive) with KM12; > 100 µM (inactive) in the assay on HOP-62. Moreover, the GI50 in the assay on NCI-H460 was > 100 µM (inactive); in the assay with MDA-MB-231, > 100 µM (inactive); in the assay with CCRF-CEM it was 24.4 µM (inactive); in the assay with SF-268, > 100 µM (inactive); in the assay with MDA-MB-435, > 100 µM (inactive); in the assay on UO-31, > 100 µM (inactive). Further, the GI50 in the assay with SK-OV-3, in the assay with U-251, in the assay with SNB-19, in the assay on T47D, in the assay with EKVX and with PC-3 was > 100 µM (inactive) each time. For the same compound, in the assay with SK-MEL-2, the GI50 was > 100 µM (inactive).
Take `CC(=O)N1C(OC(C)C)CC(C)N1c1ccccc1` (stereo not given): the GI50 in the assay with MCF7, in the assay with DU-145, in the assay with SF-295, with COLO 205, with HOP-62 and in the assay with NCI-H460 was > 10 µM (inactive) in each case. The GI50 in the assay on MDA-MB-231, with CCRF-CEM, with SF-268, in the assay with HOP-92, in the assay on MDA-MB-435 and with SNB-19 was > 10 µM (inactive) throughout. For the same compound, the GI50 in the assay on T47D, in the assay on EKVX, in the assay with PC-3 and in the assay with SK-MEL-2 was > 10 µM (inactive) throughout.
On to `CC(C)C1OC(=O)C=C1Sc1ccccc1` (stereo not given), for which the GI50 in the assay on MCF7, with DU-145, with SF-295, in the assay with COLO 205, in the assay with KM12 and in the assay on HOP-62 was > 100 µM (inactive) throughout. The GI50 in the assay on NCI-H460, in the assay on MDA-MB-231, in the assay on CCRF-CEM, with SF-268, in the assay on MDA-MB-435 and in the assay on SK-OV-3 was > 100 µM (inactive) in each case. Also, the GI50 in the assay with U-251, in the assay on SNB-19, with T47D, in the assay with EKVX, in the assay with PC-3 and in the assay on SK-MEL-2 was > 100 µM (inactive) each time.
Take `CCOP(=O)(OCC)/C(=C\n1ccc(=O)[nH]c1=S)C(=O)OC`: the GI50 in the assay on MCF7, in the assay on DU-145, with SF-295, in the assay with COLO 205, with KM12 and with HOP-62 was > 100 µM (inactive) each time. In addition, the GI50 with NCI-H460, in the assay on MDA-MB-231, in the assay with CCRF-CEM, in the assay on SF-268, in the assay on MDA-MB-435 and with UO-31 was > 100 µM (inactive) throughout. Further, the GI50 in the assay on SK-OV-3, in the assay with U-251, in the assay with T47D, in the assay on EKVX, in the assay with PC-3 and with SK-MEL-2 was > 100 µM (inactive) each time.
For `OCC(O)C(O)C(C=NNc1ncnc2ccc(Br)cc12)=NNc1ncnc2ccc(Br)cc12` (stereo not given), the GI50 is 0.378 µM (active) with MCF7; 1.34 µM (inactive) in the assay on DU-145; 3.25 µM (inactive) with SF-295; 0.255 µM (active) with COLO 205; 2.72 µM (inactive) with KM12; 2.64 µM (inactive) in the assay with HOP-62. Also, the GI50 in the assay on MDA-MB-231 was 1.88 µM (inactive); in the assay on SF-268, 1.29 µM (inactive); in the assay with HOP-92, 2.24 µM (inactive); in the assay with MDA-MB-435, 3.38 µM (inactive); in the assay with UO-31 it was 2.78 µM (inactive); in the assay with SK-OV-3, 1.85 µM (inactive). The GI50 was 1.75 µM (inactive) in the assay with U-251; 2.17 µM (inactive) in the assay on SNB-19; 0.373 µM (active) in the assay on T47D; 0.406 µM (active) in the assay with EKVX; 4.35 µM (inactive) in the assay on PC-3; 2.3 µM (inactive) in the assay with SK-MEL-2.
